Data: ChEMBL document CHEMBL1201862, “PubChem BioAssay data set” (2004)
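Growth conditions: 96-well plates. Treatment: test compound, 48 hours, 5 concentrations. Analysis: linear interpolation between bracketing concentrations; unreached endpoints set to highest concentration. Here, GI50 denotes the concentration required for 50% inhibition of growth.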 The source made the active and inactive calls. Rule as the data show it: active = GI50 up to about 1.1 µM and inactive = higher.

Legend:
Assay in all cases: inhibition of tumour cell growth, NCI panel, 48 h
786-0 = test system: 786-0
A549 = test system: A549
HCT-116 = test system: HCT-116
HOP-62 = test system: HOP-62
HT-29 = test system: HT-29
K562 = test system: K562
KM12 = test system: KM12
NCI-H460 = test system: NCI-H460
NCI-H522 = test system: NCI-H522
NCI/ADR-RES = test system: NCI/ADR-RES
OVCAR-3 = test system: OVCAR-3
PC-3 = test system: PC-3
RPMI-8226 = test system: RPMI-8226
RXF 393 = test system: RXF 393
SK-MEL-2 = test system: SK-MEL-2
SK-OV-3 = test system: SK-OV-3
SW-620 = test system: SW-620
TK-10 = test system: TK-10
HL-60 = test system: HL-60

Measured: GI50

Nc1nc(N)c2ncn(-c3ccc(Br)cc3)c2n1
inactive: 786-0 28.1 µM | A549 33.1 µM | HCT-116 25.5 µM | HOP-62 23.6 µM | HT-29 15.1 µM | K562 11 µM | KM12 14.4 µM | NCI-H460 34.9 µM | NCI-H522 9.77 µM | NCI/ADR-RES 10.7 µM | OVCAR-3 16.2 µM | PC-3 23 µM | RPMI-8226 11.4 µM | RXF 393 14.2 µM | SK-MEL-2 14.4 µM | SK-OV-3 15 µM | SW-620 45.9 µM | TK-10 35.1 µM

CC/C(=C\c1ccc(OC)cc1)c1ccc(OC)cc1
inactive: 786-0 94.2 µM | A549 > 100 µM | HCT-116 > 100 µM | HOP-62 > 100 µM | HT-29 37.5 µM | K562 > 100 µM | KM12 > 100 µM | NCI-H460 > 100 µM | NCI-H522 > 100 µM | NCI/ADR-RES > 100 µM | OVCAR-3 > 100 µM | PC-3 > 100 µM | RPMI-8226 86.3 µM | RXF 393 60.8 µM | SK-MEL-2 65.6 µM | SK-OV-3 > 100 µM | SW-620 > 100 µM | TK-10 > 100 µM

C=CCOC(=O)Cn1cc(C)c(=O)[nH]c1=O
inactive: 786-0 > 100 µM | A549 > 100 µM | HCT-116 > 100 µM | HL-60 > 100 µM | HOP-62 > 100 µM | HT-29 > 100 µM | K562 > 100 µM | KM12 > 100 µM | NCI-H460 > 100 µM | NCI/ADR-RES > 100 µM | PC-3 > 100 µM | RPMI-8226 > 100 µM | SK-MEL-2 > 100 µM | SK-OV-3 > 100 µM | SW-620 > 100 µM | TK-10 > 100 µM

CCN(C(=O)N[C@@H](Cc1ccccc1)C(=O)N[C@@H](CC(C)C)C(=O)OC)c1ccccc1
inactive: 786-0 19.8 µM | A549 30.5 µM | HCT-116 20.2 µM | HOP-62 34.4 µM | HT-29 14.3 µM | K562 31.3 µM | KM12 29.4 µM | NCI-H460 12.4 µM | NCI-H522 9.55 µM | NCI/ADR-RES 26.5 µM | OVCAR-3 26.5 µM | PC-3 35.1 µM | RPMI-8226 20.1 µM | RXF 393 19.1 µM | SK-MEL-2 61 µM | SK-OV-3 40.6 µM | SW-620 25.4 µM | TK-10 33 µM

CCCCC1(O)CC2CC1C(C)C2(C)C (stereo not drawn)
inactive: 786-0 > 100 µM | A549 > 100 µM | HCT-116 > 100 µM | HL-60 21.5 µM | HOP-62 > 100 µM | HT-29 > 100 µM | K562 > 100 µM | KM12 > 100 µM | NCI/ADR-RES > 100 µM | OVCAR-3 > 100 µM | PC-3 > 100 µM | RPMI-8226 54.6 µM | RXF 393 > 100 µM | SK-OV-3 > 100 µM | SW-620 > 100 µM | TK-10 > 100 µM

COC(=O)C1CCN(C(=O)OC(C)(C)C)CC1
inactive: 786-0 > 100 µM | A549 > 100 µM | HCT-116 > 100 µM | HL-60 > 100 µM | HOP-62 > 100 µM | HT-29 > 100 µM | KM12 > 100 µM | NCI-H460 > 100 µM | NCI-H522 > 100 µM | NCI/ADR-RES > 100 µM | OVCAR-3 > 100 µM | PC-3 > 100 µM | RPMI-8226 > 100 µM | SK-MEL-2 > 100 µM | SW-620 > 100 µM | TK-10 > 100 µM

CCOC(=O)c1nc2ccc(C(F)(F)F)cc2nc1Oc1cc(OC)c(OC)c(OC)c1
inactive: 786-0 13.5 µM | A549 53.7 µM | HCT-116 50.9 µM | HL-60 > 100 µM | HOP-62 25.6 µM | HT-29 78.2 µM | K562 36.7 µM | KM12 40.2 µM | NCI-H460 42.5 µM | NCI/ADR-RES 30.9 µM | OVCAR-3 > 100 µM | PC-3 > 100 µM | RPMI-8226 > 100 µM | RXF 393 28.7 µM | SK-MEL-2 > 100 µM | SK-OV-3 > 100 µM | SW-620 47.8 µM | TK-10 75.3 µM

Cc1ccc(/N=N/c2c(O)ccc3cc(S(=O)(=O)O)ccc23)c(C)c1
inactive: 786-0 > 100 µM | A549 > 100 µM | HCT-116 > 100 µM | HL-60 92.9 µM | HOP-62 > 100 µM | HT-29 > 100 µM | K562 > 100 µM | KM12 > 100 µM | NCI-H460 > 100 µM | NCI-H522 > 100 µM | NCI/ADR-RES > 100 µM | OVCAR-3 > 100 µM | PC-3 > 100 µM | RXF 393 > 100 µM | SK-MEL-2 > 100 µM | SK-OV-3 > 100 µM | SW-620 > 100 µM | TK-10 > 100 µM

COc1ccc2c(=O)c(O)c(-c3ccc(OC)c(OC)c3)oc2c1
inactive: A549 4.92 µM | HCT-116 4.97 µM | HL-60 1.66 µM | HOP-62 3.98 µM | HT-29 4.92 µM | K562 4.53 µM | NCI-H460 3.35 µM | NCI-H522 3.13 µM | NCI/ADR-RES 2.23 µM | OVCAR-3 2.84 µM | PC-3 9.38 µM | RPMI-8226 4.09 µM | SK-OV-3 5.42 µM | SW-620 4.97 µM | TK-10 4.91 µM
